Tests used:
Assay in all cases: relative viability (nuclei count vs DMSO), 5 days (fraction); higher = more cells survive
BEN = test system: BEN
Method in brief: (§1)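 Relative viability equals treated-well nuclei counts divided by vehicle-well nuclei counts. Counts came from 4× images of lung cancer cell lines grown in 1536-well plates for 5 days after pin-tool dosing on the day after seeding. Dosing used one drug alone or a fixed anchor-drug dose plus five library-drug doses (not always all listed) in √10 steps, and values are medians of duplicate plates.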

ChaGo-K-1 = test system: ChaGo-K-1
Method in brief: as §1

HCC-15 = test system: HCC-15
Method in brief: as §1

HCC-78 = test system: HCC-78
Method in brief: as §1

LC-2-ad = test system: LC-2-ad
Method in brief: as §1

LCLC-97TM1 = test system: LCLC-97TM1
Method in brief: as §1

LK-2 = test system: LK-2
Method in brief: as §1

LU99A = test system: LU99A
Method in brief: as §1

LXF-289 = test system: LXF-289
Method in brief: as §1

NCI-H1651 = test system: NCI-H1651
Method in brief: as §1

NCI-H1666 = test system: NCI-H1666
Method in brief: as §1

NCI-H1944 = test system: NCI-H1944
Method in brief: as §1

NCI-H2087 = test system: NCI-H2087
Method in brief: as §1

NCI-H322M = test system: NCI-H322M
Method in brief: as §1

NCI-H358 = test system: NCI-H358
Method in brief: as §1

NCI-H596 = test system: NCI-H596
Method in brief: as §1

NCI-H650 = test system: NCI-H650
Method in brief: as §1

NCI-H661 = test system: NCI-H661
Method in brief: as §1

NCI-H838 = test system: NCI-H838
Method in brief: as §1

PC-3 [JPC-3] = test system: PC-3 [JPC-3]
Method in brief: as §1

SK-MES-1 = test system: SK-MES-1
Method in brief: as §1

UMC-11 = test system: UMC-11
Method in brief: as §1

C=C1C(=O)O[C@@H](CCCCCCCC)[C@@H]1C(=O)O [C-75] + CS(=O)(=O)N1CCN(Cc2cc3nc(-c4cccc5[nH]ncc45)nc(N4CCOCC4)c3s2)CC1 [Pictilisib] (partner 1 µM)
relative viability (BEN; first compound 0.08 µM): 0.541
relative viability (BEN; first compound 0.253 µM): 0.651
relative viability (BEN; first compound 0.8 µM): 0.538
relative viability (BEN; first compound 2.53 µM): 0.553
relative viability (BEN; first compound 8 µM): 0.443
relative viability (ChaGo-K-1; first compound 0.08 µM): 0.431
relative viability (ChaGo-K-1; first compound 0.253 µM): 0.749
relative viability (ChaGo-K-1; first compound 0.8 µM): 0.594
relative viability (ChaGo-K-1; first compound 2.53 µM): 0.507
relative viability (ChaGo-K-1; first compound 8 µM): 0.771
relative viability (HCC-15; first compound 0.08 µM): 0.739
relative viability (HCC-15; first compound 0.253 µM): 0.761
relative viability (HCC-15; first compound 0.8 µM): 0.654
relative viability (HCC-15; first compound 2.53 µM): 0.666
relative viability (HCC-15; first compound 8 µM): 0.725
relative viability (HCC-78; first compound 0.08 µM): 0.216
relative viability (HCC-78; first compound 0.253 µM): 0.217
relative viability (HCC-78; first compound 0.8 µM): 0.206
relative viability (HCC-78; first compound 2.53 µM): 0.198
relative viability (HCC-78; first compound 8 µM): 0.22
relative viability (LC-2-ad; first compound 0.08 µM): 0.556
relative viability (LC-2-ad; first compound 0.253 µM): 0.528
relative viability (LC-2-ad; first compound 0.8 µM): 0.457
relative viability (LC-2-ad; first compound 8 µM): 0.442
relative viability (LCLC-97TM1; first compound 0.08 µM): 0.234
relative viability (LCLC-97TM1; first compound 0.253 µM): 0.215
relative viability (LCLC-97TM1; first compound 0.8 µM): 0.265
relative viability (LCLC-97TM1; first compound 2.53 µM): 0.187
relative viability (LCLC-97TM1; first compound 8 µM): 0.18
relative viability (LK-2; first compound 0.08 µM): 0.444
relative viability (LK-2; first compound 0.253 µM): 0.662
relative viability (LK-2; first compound 0.8 µM): 0.555
relative viability (LK-2; first compound 2.53 µM): 0.461
relative viability (LK-2; first compound 8 µM): 0.396
relative viability (LU99A; first compound 0.08 µM): 0.281
relative viability (LU99A; first compound 0.253 µM): 0.306
relative viability (LU99A; first compound 0.8 µM): 0.305
relative viability (LU99A; first compound 2.53 µM): 0.286
relative viability (LU99A; first compound 8 µM): 0.307
relative viability (LXF-289; first compound 0.08 µM): 0.77
relative viability (LXF-289; first compound 0.253 µM): 0.836
relative viability (LXF-289; first compound 0.8 µM): 0.76
relative viability (LXF-289; first compound 2.53 µM): 0.771
relative viability (LXF-289; first compound 8 µM): 0.73
relative viability (NCI-H1651; first compound 0.08 µM): 0.466
relative viability (NCI-H1651; first compound 0.253 µM): 0.633
relative viability (NCI-H1651; first compound 0.8 µM): 0.499
relative viability (NCI-H1651; first compound 2.53 µM): 1.04
relative viability (NCI-H1651; first compound 8 µM): 0.501
relative viability (NCI-H1666; first compound 0.08 µM): 0.49
relative viability (NCI-H1666; first compound 0.253 µM): 0.555
relative viability (NCI-H1666; first compound 0.8 µM): 0.295
relative viability (NCI-H1666; first compound 2.53 µM): 0.41
relative viability (NCI-H1666; first compound 8 µM): 0.346
relative viability (NCI-H1944; first compound 0.08 µM): 0.346
relative viability (NCI-H1944; first compound 0.253 µM): 0.34
relative viability (NCI-H1944; first compound 0.8 µM): 0.33
relative viability (NCI-H1944; first compound 8 µM): 0.342
relative viability (NCI-H2087; first compound 0.08 µM): 0.853
relative viability (NCI-H2087; first compound 0.253 µM): 0.844
relative viability (NCI-H2087; first compound 0.8 µM): 0.733
relative viability (NCI-H2087; first compound 2.53 µM): 0.428
relative viability (NCI-H2087; first compound 8 µM): 0.859
relative viability (NCI-H322M; first compound 0.08 µM): 0.563
relative viability (NCI-H322M; first compound 0.253 µM): 0.674
relative viability (NCI-H322M; first compound 0.8 µM): 0.514
relative viability (NCI-H322M; first compound 2.53 µM): 0.528
relative viability (NCI-H322M; first compound 8 µM): 0.489
relative viability (NCI-H358; first compound 0.08 µM): 0.365
relative viability (NCI-H358; first compound 0.253 µM): 0.348
relative viability (NCI-H358; first compound 0.8 µM): 0.312
relative viability (NCI-H358; first compound 2.53 µM): 0.326
relative viability (NCI-H358; first compound 8 µM): 0.361
relative viability (NCI-H596; first compound 0.08 µM): 0.406
relative viability (NCI-H596; first compound 0.253 µM): 0.39
relative viability (NCI-H596; first compound 0.8 µM): 0.229
relative viability (NCI-H596; first compound 2.53 µM): 0.39
relative viability (NCI-H596; first compound 8 µM): 0.438
relative viability (NCI-H650; first compound 0.08 µM): 0.864
relative viability (NCI-H650; first compound 0.253 µM): 0.825
relative viability (NCI-H650; first compound 0.8 µM): 0.801
relative viability (NCI-H650; first compound 2.53 µM): 0.815
relative viability (NCI-H650; first compound 8 µM): 0.883
relative viability (NCI-H661; first compound 0.08 µM): 0.398
relative viability (NCI-H661; first compound 0.253 µM): 0.493
relative viability (NCI-H661; first compound 0.8 µM): 0.355
relative viability (NCI-H661; first compound 2.53 µM): 0.315
relative viability (NCI-H661; first compound 8 µM): 0.382
relative viability (NCI-H838; first compound 0.08 µM): 0.43
relative viability (NCI-H838; first compound 0.253 µM): 0.376
relative viability (NCI-H838; first compound 0.8 µM): 0.444
relative viability (NCI-H838; first compound 2.53 µM): 0.386
relative viability (NCI-H838; first compound 8 µM): 0.478
relative viability (PC-3 [JPC-3]; first compound 0.08 µM): 0.817
relative viability (PC-3 [JPC-3]; first compound 0.253 µM): 0.637
relative viability (PC-3 [JPC-3]; first compound 0.8 µM): 0.674
relative viability (PC-3 [JPC-3]; first compound 2.53 µM): 0.822
relative viability (PC-3 [JPC-3]; first compound 8 µM): 0.876
relative viability (SK-MES-1; first compound 0.08 µM): 0.339
relative viability (SK-MES-1; first compound 0.253 µM): 0.374
relative viability (SK-MES-1; first compound 0.8 µM): 0.374
relative viability (SK-MES-1; first compound 2.53 µM): 0.373
relative viability (SK-MES-1; first compound 8 µM): 0.346
relative viability (UMC-11; first compound 0.08 µM): 0.74
relative viability (UMC-11; first compound 0.253 µM): 0.899
relative viability (UMC-11; first compound 0.8 µM): 0.704
relative viability (UMC-11; first compound 2.53 µM): 0.702
relative viability (UMC-11; first compound 8 µM): 0.75

— the supplement of paper PMC10307832
